Assays:
Test in all cases: relative viability vs DMSO control (72 h) (fraction); higher = more viable cells
SW1353 = tested on: SW1353
Method in brief: (§1)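 Sarcoma cell lines in 384-well plates, seeded to reach 80–90% confluence, were given compound after 24 h and kept 72 h at 37 °C, 5% CO2, with 0.1% DMSO vehicle and a 5 µM positive control. Relative viability came from ATPLite as percent growth, averaged over up to triplicate wells. On the rescaled values, 1 equals full and 0 equals none.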

RD-ES = tested on: RD-ES
Method in brief: as §1

SW684 = tested on: SW684
Method in brief: as §1

KHOS-240S = tested on: KHOS-240S
Method in brief: as §1

A204 = tested on: A204
Method in brief: as §1

SW872 = tested on: SW872
Method in brief: as §1

KHOS-NP = tested on: KHOS-NP
Method in brief: as §1

SW982 = tested on: SW982
Method in brief: as §1

G401 = tested on: G401
Method in brief: as §1

SYO-1 = tested on: SYO-1
Method in brief: as §1

HT1080 = tested on: HT1080
Method in brief: as §1

SK-ES-1 = tested on: SK-ES-1
Method in brief: as §1

C[C@]12O[C@H](C[C@]1(O)CO)n1c3ccccc3c3c4c(c5c6ccccc6n2c5c31)CNC4=O [Lestaurtinib]
Details	relative viability
A204, 0.00017 µM	1.07
A204, 0.00051 µM	1.07
A204, 0.00152 µM	1.07
A204, 0.00457 µM	1.02
A204, 0.01372 µM	0.967
A204, 0.04115 µM	0.788
A204, 0.1235 µM	0.56
A204, 0.3704 µM	0.378
A204, 1.111 µM	0.321
A204, 3.333 µM	0.277
A204, 10 µM	0.118
G401, 0.00017 µM	1.01
G401, 0.00051 µM	0.985
G401, 0.00152 µM	1.03
G401, 0.00457 µM	1.02
G401, 0.01372 µM	1.03
G401, 0.04115 µM	0.996
G401, 0.1235 µM	0.985
G401, 0.3704 µM	0.912
G401, 1.111 µM	0.718
G401, 3.333 µM	0.023
G401, 10 µM	0.00583
HT1080, 0.00017 µM	1.09
HT1080, 0.00051 µM	1.11
HT1080, 0.00152 µM	1.1
HT1080, 0.00457 µM	1.12
HT1080, 0.01372 µM	1.09
HT1080, 0.04115 µM	1.12
HT1080, 0.1235 µM	0.915
HT1080, 0.3704 µM	0.877
HT1080, 1.111 µM	0.689
HT1080, 3.333 µM	0.185
HT1080, 10 µM	0.0222
KHOS-240S, 0.00017 µM	1.086
KHOS-240S, 0.00051 µM	1.06
KHOS-240S, 0.00152 µM	1.1
KHOS-240S, 0.00457 µM	1.04
KHOS-240S, 0.01372 µM	1.06
KHOS-240S, 0.04115 µM	1.05
KHOS-240S, 0.1235 µM	0.892
KHOS-240S, 0.3704 µM	0.525
KHOS-240S, 1.111 µM	0.345
KHOS-240S, 3.333 µM	0.169
KHOS-240S, 10 µM	0.0619
KHOS-NP, 0.00017 µM	1.11
KHOS-NP, 0.00051 µM	1.108
KHOS-NP, 0.00152 µM	1.11
KHOS-NP, 0.00457 µM	1.1
KHOS-NP, 0.01372 µM	1.1
KHOS-NP, 0.04115 µM	1.08
KHOS-NP, 0.1235 µM	0.9051
KHOS-NP, 0.3704 µM	0.785
KHOS-NP, 1.111 µM	0.471
KHOS-NP, 3.333 µM	0.205
KHOS-NP, 10 µM	0.091
RD-ES, 0.00017 µM	0.996
RD-ES, 0.00051 µM	1
RD-ES, 0.00152 µM	0.999
RD-ES, 0.00457 µM	0.989
RD-ES, 0.01372 µM	0.936
RD-ES, 0.04115 µM	0.804
RD-ES, 0.1235 µM	0.497
RD-ES, 0.3704 µM	0.288
RD-ES, 1.111 µM	0.16
RD-ES, 3.333 µM	0.0482
RD-ES, 10 µM	0.0633
SK-ES-1, 0.00017 µM	1.1
SK-ES-1, 0.00051 µM	1.06
SK-ES-1, 0.00152 µM	1.07
SK-ES-1, 0.00457 µM	1
SK-ES-1, 0.01372 µM	0.881
SK-ES-1, 0.04115 µM	0.543
SK-ES-1, 0.1235 µM	0.329
SK-ES-1, 0.3704 µM	0.0863
SK-ES-1, 1.111 µM	0.0742
SK-ES-1, 3.333 µM	0.0554
SK-ES-1, 10 µM	0.0776
SW684, 0.00017 µM	1.15
SW684, 0.00051 µM	1.18
SW684, 0.00152 µM	1.16
SW684, 0.00457 µM	1.17
SW684, 0.01372 µM	1.18
SW684, 0.04115 µM	1.13
SW684, 0.1235 µM	1.11
SW684, 0.3704 µM	0.913
SW684, 1.111 µM	0.659
SW684, 3.333 µM	0.346
SW684, 10 µM	0.0527
SW872, 0.00017 µM	1.08
SW872, 0.00051 µM	1.07
SW872, 0.00152 µM	1.04
SW872, 0.00457 µM	1.03
SW872, 0.01372 µM	0.955
SW872, 0.04115 µM	0.803
SW872, 0.1235 µM	0.648
SW872, 0.3704 µM	0.507
SW872, 1.111 µM	0.358
SW872, 3.333 µM	0.267
SW872, 10 µM	0.0094
SW982, 0.00017 µM	1.03
SW982, 0.00051 µM	1.03
SW982, 0.00152 µM	1.06
SW982, 0.00457 µM	1.03
SW982, 0.01372 µM	0.895
SW982, 0.04115 µM	0.697
SW982, 0.1235 µM	0.494
SW982, 0.3704 µM	0.381
SW982, 1.111 µM	0.314
SW982, 3.333 µM	0.23
SW982, 10 µM	0.0243
SW1353, 0.00017 µM	1.04
SW1353, 0.00051 µM	1.01
SW1353, 0.00152 µM	1
SW1353, 0.00457 µM	0.975
SW1353, 0.01372 µM	0.943
SW1353, 0.04115 µM	0.868
SW1353, 0.1235 µM	0.756
SW1353, 0.3704 µM	0.698
SW1353, 1.111 µM	0.6462
SW1353, 3.333 µM	0.375
SW1353, 10 µM	0.155
SYO-1, 0.00017 µM	1.02
SYO-1, 0.00051 µM	0.989
SYO-1, 0.00152 µM	0.992
SYO-1, 0.00457 µM	0.991
SYO-1, 0.01372 µM	0.943
SYO-1, 0.04115 µM	0.873
SYO-1, 0.1235 µM	0.644
SYO-1, 0.3704 µM	0.295
SYO-1, 1.111 µM	0.0874
SYO-1, 3.333 µM	0.1
SYO-1, 10 µM	0.102

Source: the supplement of paper PMC10883282
